Data: paper PMC8962522, “Direct interaction of TrkA/CD44v3 is essential for NGF-promoted aggressiveness of breast cancer cells” (Journal of Experimental & Clinical Cancer Research : CR, 2022)

Columns and labels:
[1] = test system: CD44v3 (CD44v3-His, whole cell extracts of COS-7 cells expressing CD44v3); assay: MST binding of NGF, TrkA or FGF to CD44v3; conditions: whole cell extracts of COS-7 expressing CD44v3, NGF alone, TrkA alone or FGF control
Description: (§1) MST was conducted using an NT.115 A Pico MST instrument (Nano Temper Technologies GmbH) equipped with red and blue filter sets. The TrkA-His tagged extracellular domain protein (Ala 34-Gly423) (9966-TK-050; R&D Systems, United Kingdom), diluted to 200 nM in PBS-T buffer (supplied by the vendor), was labeled using a Monolith His-Tag Labeling Kit with RED-Tris-NTA (Nano Temper). The RED-Tris-NTA dye was diluted in PBS-T to 100 nM. The mix was incubated at RT in the dark for 30 min. Next, an extract expressing CD44v3-labeled protein (CD44v3-His) and ligand and/or TrkA was mixed at a 1:1 ratio and incubated at RT in the dark for 15 min. For the binding check, peptides and TrkA-His were used. Capillaries were filled individually and loaded into the instrument. The data were acquired using high MST power and 100% LED. The data were analyzed using MO Control Software (Nano Temper).
(§2) Fig. 1 The C-terminal region of CD44 variant 3 binds to TrkA. A Schematic representation of the CD44 gene and protein structure. Alternative splicing leads to the expression of CD44 variants, thus the insertion of exon 8 leads to the expression of a CD44 protein containing variant 3 (CD44v3) and the insertion of exon 11 leads to the expression of a CD44 containing variant 6 (CD44v6) (B) TrkA/CD44v3 complex formation in COS-7 cells expressing TrkA and CD44v3 was detected by the proximity ligation assay (PLA), which was performed 0, 5 and 30 min after the initiation of NGF (100 ng/ml) treatment. The images represent signals detected by PLA. Quantification of the red spots was performed by ImageJ software (30 randomly chosen fields per condition of three different experiments). Statistical analyses were performed using one-way ANOVA followed by Bonferroni’s posttest. Error bars represent the standard error of the mean (S.E.M.); *** p < 0.001. ns, nonsignificant. C NGF and/or TrkA binding to CD44v3 was measured by microscale thermophoresis (MST). MST experiments were performed on whole cell extracts of COS-7 cells expressing CD44v3. […]

[2] = test system: TrkA-His tagged extracellular domain protein (Ala 34-Gly423); assay: MST binding of CD44v3 mimetic peptides to TrkA; conditions: TrkA-His 200 nM labelled with RED-Tris-NTA, PBS-T
Description: as §1
Fig. 2 The C-terminal region of CD44v3 and the His112 residue of TrkA are involved in the CD44v3/TrkA interaction. TrkA/CD44v3 complex association was detected by the proximity ligation assay (PLA) in wild-type TrkA- or TrkA_H112A- and CD44v3-expressing COS-7 cells. Proximity ligation assays were performed after 0, 5 and 30 min of NGF treatment (100 ng/ml). Representative images of signals detected by PLA (A) and their quantification (B). Sequence of CD44 exon variant 3 and deletion mutant Δ3 or Δ4 (C). TrkA/CD44v3 complex association was detected by PLA in wild-type TrkA and CD44v3 wild type or CD44v3 deleted mutant Δ3 or Δ4 expressing COS-7 (D, E). Sequence of CD44v3 mimetic peptides (F) and structure (G). TrkA binding to CD44v3 mimetic peptides by microscale thermophoresis (H) and effects of CD44v3 mimetic peptides 3 (RDRHLSFSGSG) and 4 ([…]) on TrkA/CD44v3 complex formation (I, J). Quantification of PLA was performed using ImageJ software (30 fields per condition of three different experiments). Statistical analyses were performed using one-way ANOVA followed by Bonferroni’s posttest.
To block the TrkA-CD44v3 association, 4 mimetic peptides of CD44v3 were designed corresponding to zone 1 [(K) STSSNTISAG], zone 2 (WEPNEENEDE), zone 3 (RDRHLSFSGSG) and zone 4 (IDDDEDFISST) (Fig. 2F & G). The binding capacities of the CD44v3 mimetic peptides to TrkA were then measured by MST (Fig. 2H). […] To confirm mimetic peptide 4 binding, we assessed its ability to bind TrkA using nanoscale differential scanning fluorimetry (nanoDSF; Supplementary Fig. 6A & B).

[3] = test system: TrkA/CD44v3 complex in MDA-MB-231 cells; assay: PLA TrkA/CD44v3 complex formation in MDA-MB-231 cells; format: cell-based; conditions: NGF 100 ng/ml; 30 fields per condition, three experiments
Description: (§3) Cells (10,000 cells per well) were grown on acid-washed eight-well glass slides (Thermo Scientific) in the appropriate medium supplemented with 10% FBS for 24 h. After NGF treatment, paraformaldehyde (PAF)-fixed cells were incubated with 4% bovine serum albumin (BSA) or 5% FBS (for 1 h at 20 °C), followed by overnight incubation with primary antibodies (rabbit anti-TrkA or rabbit anti-IgG + mouse anti-pan-CD44; mouse anti-CD44v3; mouse anti-CD44v6; mouse anti-IgG2a; mouse anti-IgG2b; or mouse anti-IgG1). PLA was performed following the manufacturer’s instructions in the assay kit (Duolink PLA; Sigma–Aldrich). To obtain the correct representation of the PLA signal for each condition, 30 fields per condition were observed using a fluorescence microscope (Eclipse TiU; Nikon, Japan). The PLA signals (red dots) were automatically quantified using ImageJ software (with an in-house-developed plug-in). After PLA, statistical analyses were performed using GraphPad Prism software to determine the mean dot intensity in the cells.
Fig. 3 CD44v3 mimetic peptide 4 blocks the TrkA-CD44 association in MDA-MB-231 breast cancer cells. TrkA/CD44v3 (A) and TrkA/CD44v6 (B) complex associations were detected by the proximity ligation assay (PLA) in MDA-MB-231 breast cancer cells. Effects of a scramble peptide (SP) (C), CD44v3 mimetic peptide 3 (P3) and 4 (P4) (D) on TrkA/CD44v3 complex formation induced by NGF. Quantification of the PLA results was performed by ImageJ software (30 randomly chosen fields per condition of three different experiments). Statistical analyses were performed using one-way ANOVA followed by Bonferroni’s posttest. The error bars represent the standard error of the mean (S.E.M.); * p < 0.05, ** p < 0.01, *** p < 0.001; ns, not significant

[4] = test system: TrkA/CD44v3 complex in COS-7 cells expressing TrkA and CD44v3; assay: PLA TrkA/CD44v3 complex formation in COS-7 cells; format: cell-based, African green monkey (COS-7 cells); conditions: COS-7 expressing TrkA and CD44v3, NGF 100 ng/ml, 0, 5 and 30 min, 30 fields per condition, three experiments
Description: as §3, §2
Fig. 2 The C-terminal region of CD44v3 and the His112 residue of TrkA are involved in the CD44v3/TrkA interaction. TrkA/CD44v3 complex association was detected by the proximity ligation assay (PLA) in wild-type TrkA- or TrkA_H112A- and CD44v3-expressing COS-7 cells. […] Representative images of signals detected by PLA (A) and their quantification (B). […] TrkA/CD44v3 complex association was detected by PLA in wild-type TrkA and CD44v3 wild type or CD44v3 deleted mutant Δ3 or Δ4 expressing COS-7 (D, E). […] Quantification of PLA was performed using ImageJ software (30 fields per condition of three different experiments). […]

Substance | binding to CD44v3 (in words) [1] | binding to TrkA by MST (in words) [2] | further results
FGF-1: fibroblast growth factor, positive control for CD44v3 binding | In contrast to FGF-1 (Supplementary Fig. 4), NGF did not bind to CD44v3 | – | –
WEPNEENEDE [Peptide 2, CD44v3 mimetic peptide corresponding to zone 2 (…)] | – | neither peptide 1 (KSTSSNTISAG) nor peptide 2 (WEPNEENEDE) could bind TrkA | –
RDRHLSFSGSG [Peptide 3, CD44v3 mimetic peptide corresponding to zone 3 (…)] | – | – | effect on TrkA/CD44v3 complex formation (PLA) in MDA-MB-231 cells [3]: neither a scramble peptide (Fig. 3C) nor mimetic peptide P3 (Fig. 3D) inhibited TrkA/CD44v3 complex formation following NGF treatment; effect on TrkA/CD44v3 complex formation (PLA) in COS-7 cells [4]: did not inhibit TrkA/CD44v3 complex formation; effect on TrkA/CD44v3 complex formation (PLA) in COS-7 cells ([4]; listed as P3): did not abolish complex formation; binding to TrkA by MST (in words) ([2]; listed as P3): also bound TrkA
KSTSSNTISAG [Peptide 1, CD44v3 mimetic peptide corresponding to zone 1 [(K) […]]] | – | neither peptide 1 ([…]) nor peptide 2 ([…]) could bind TrkA | –
FGF-2: FGF-2 (control), binding to CD44v3 | binding to CD44v3 but not to NGF was detected | – | –
